From US20090142363A1, “CYTOTOXIC T-CELL EPITOPE PEPTIDE AND USE THEREOF” (priority 2005, published 2009)
No end group written: not given here.

System: PBMCs of healthy adults reactive to the anti-HLA-A*24 antibody
Assay: Induction of specific CTLs from PBMCs, method for quantifying cells producing intracellular IFNγ
Type: cell-based, human
Parameters: key to specific CTL induction, cytokine quantification method: ∘: “open circle” indicates that the use of a candidate peptide enabled specific CTLs to be induced; x: “cross” indicates that specific CTLs was unable to be induced
Settings: for specific CTL induction confirmed by CD8-positive, IFNγ-positive cells versus HIV peptide: donor ID*24-8, FIG. 3a-d; for peptide-specific cytokine production in PBMCs derived from ten people with HLA-A*24 molecule: summary of Table 2
Method: This induction method induces CTLs by adding peptides to culture media of PBMCs. Peptides are presented on antigen-presenting cells present among PBMCs, such as dendritic cells, B cells, macrophages, and certain types of T cells, whereby CTL precursor cells in PBMCs are stimulated to proliferate.
Peripheral blood collected from healthy adults that were reactive to the anti-HLA-A*24 antibody was centrifuged at 3,000 rpm for 5 to 10 minutes. The resulting supernatant plasma was collected. The non-plasma portion was processed according to a conventional method to isolate PBMCs. The characteristic of the present method is the addition of several % of plasma to an induction medium. In the present invention, a favorable result was obtained by adding 5% plasma. The medium is prepared by adding appropriate additives and antibiotics to a medium commonly used for cell culture. The CTL induction medium used in the present invention was RPMI1640 Hepes modify (Sigam) supplemented with 2-mercapotethanol, L-glutamine, and the antibiotics streptomycin and penicillin. In addition to these, insulin, transferrin, selenious acid, pyruvic acid, human serum albumin, solution of non-essential amino acids, and the like may be added. 1 to 3×10^6 PBMCs were suspended in 1 to 2.5 ml of the culture medium. A candidate peptide was added to the cells at a concentration of 1 to 20 μg/ml. The concentration of peptide can be altered depending on the solubility of the peptide. The peptide was added at 10 μg/ml. After two days, IL-2 was added at a final concentration of 20 to 100 U/ml. Round-bottomed culture dishes that allow the exchange of carbon dioxide gas are preferably used to co-culture PBMCs with peptides. In the context of the present invention, 14-ml round-bottomed polypropylene tubes (Becton Dikinson) or 96-well U-bottomed cell culture microtest plates (Becton Dikinson) were used. The adenovirus-specific CTLs were confirmed after about two and four weeks of culture. The cells were stimulated again with the peptide at 10 μg/ml after about two weeks of culture. When the induction of adenovirus-specific CTLs was confirmed, the cells were further stimulated with peptide-pulsed antigen-presenting cells to establish CTL lines.
Approximately 1/10 to all of the cells induced by the above-described method were transferred into 96-well U-bottomed cell culture microtest plates, and the peptide used for the induction was added thereto at a final concentration of 0.01 to 0.05 μg/ml. Then, an intracellular protein transport inhibitor (for example, brefeldin A, monensin, or such) was added, and the cells were cultured in a 5% CO2 incubator at 37° C. for 5 to 16 hours. After culture, the cells were washed, and phycoerythrin (PE)-labeled MHC-tetramer reagent and phycoerythrin-Cy5(PC5)-labeled CD8 antibody (Beckman Coulter) were added thereto. The resulting mixture was allowed to stand at room temperature for 15 to 30 minutes. After washing, the cells were fixed with 4% formaldehyde at 4° C. for 15 minutes and washed with an excess amount of washing solution. After membrane permeabilization treatment with 0.1% saponin, an FITC-labeled anti-IFNγ antibody (Beckman Coulter) was added, and reacted at room temperature for 15 to 30 minutes. After washing, the proportion of IFNγ-positive cells in T cells or MHC-tetramer reagent-positive cells was determined using a flow cytometer.
PBMCs derived from ten people with HLA-A*24 molecule were tested using 10 types of peptides. […] Thus, these six types of candidate epitope peptides serve as adenovirus-specific CTL epitope peptides. Since the adenovirus-specific CTL epitope peptides have the HLA-A*24-binding motif, they are likely to be HLA-A*2402-restricted epitope peptides, which are carried by 60% or more of the Japanese people. In the context of the results described above, MHC-tetramer reagents were synthesized using five types of epitope peptides, and their utility was tested.

Sequence	specific CTL induction, cytokine quantification method (donor ID *24-1)	specific CTL induction, cytokine quantification method (donor ID *24-2)	specific CTL induction, cytokine quantification method (donor ID *24-3)	specific CTL induction, cytokine quantification method (donor ID *24-5)	specific CTL induction, cytokine quantification method (donor ID *24-8)	specific CTL induction, cytokine quantification method (donor ID *24-10)	specific CTL induction, cytokine quantification method (donor ID *24-11)	specific CTL induction, cytokine quantification method (donor ID *24-12)	specific CTL induction, cytokine quantification method (donor ID *24-13)	specific CTL induction, cytokine quantification method (donor ID *24-14)	specific CTL induction confirmed by CD8-positive, IFNγ-positive cells versus HIV peptide	peptide-specific cytokine production in PBMCs derived from ten people with HLA-A*24 molecule
VYSGSIPYL	x	∘	x	x	∘	x	x	x	x	x	induced specific CTLs	induce cytokine production in a peptide-specific manner
TYFNLGNKF [TYF]	x	∘	x	x	∘	x	x	x	x	x	induced specific CTLs	induce cytokine production in a peptide-specific manner
